Test results reported in publication PMC6941661 (Cell host & microbe, 2019).

System: N9 NA of A/Shanghai/2/2013 (SH13) (H7N9), virus A/Shanghai/2/2013 (H7N9)-PR8-IDCDC-RG32A
Assay type: biochemical, Influenza A virus (A/Shanghai/2/2013(H7N9))

CC(=O)N[C@H]1[C@H]([C@H](O)[C@H](O)CO)OC(C(=O)O)=C[C@@H]1N=C(N)N [zanamivir]
IC50: 7.6 nM
